Results taken from patent US20040214305A1, “Method of improving biomass yield of lactic acid bacterial cultures” (DANMARKS TEKNISKE UNIVERSITET, priority 2000, published 2004).

Legend:
[1] = tested on: Lactococcus lactis subsp. cremoris PJ4662; test: Biomass yield (OD600) in aerobic batch culture in defined SA medium; type: cell-based; details: for Increase of yield of biomass relative to MSA / Increase of yield of biomass relative to GSA: PJ4662, aerobic; for Increase of yield of biomass relative to MSA / Biomass: SA medium with 0.1% maltose; for Increase of yield of biomass relative to GSA: SA medium with growth limiting glucose; for Biomass: PJ4662, batch, maltose alone = 100
Protocol: Wild type L. lactis subsp. cremoris PJ4662, a derivative of the strain MG1363 containing the pAK80 plasmid (Israelsen et al., 1995) was grown aerobically in defined SA medium (Jensen and Hammer, 1993) supplemented with a growth limiting concentration of glucose (GSA), and in GSA medium further supplemented with haemin (GSA+H), heamin+lipoic acid (GSA+H+L) and: lipoic acid alone (GSA+L). The biomass yield was estimated by measuring the optical density at 600 nm (OD600). The yield of biomass increased by about 12% relative to the yield obtained with GSA when the medium was supplemented with haemin, by about 25% using the haemin+lipoic acid supplement and by about 7% using lipoic acid alone.
L. lactis subsp. cremoris PJ4662 was grown aerobically in defined SA medium (Jensen and Hammer, 1993) supplemented with a growth-limiting concentration of 0.1% maltose (MSA), and in MSA medium further supplemented with haemin (MSA+H), haemin+lipoic acid (MSA+H+L) and lipoic acid alone (MSA+L). The biomass yield was estimated by measuring the optical density at 600 nm (OD600), see Table 1.2 below.
It was also tested whether the extent of aeration affected the biomass yield and the amount of ATP produced by oxidative phosphorylation by performing an experiment (Table 1.3) using more vigorous aeration as compared to the experiment illustrated in Table 1.2.
Wild type L. lactis subsp. cremoris PJ4662, a derivative of the strain MG1363 containing the pAK80 plasmid (Israelsen et al., 1995) was grown aerobically in defined SA medium (Jensen and Hammer, 1993) supplemented with a growth limiting concentration of galactose and lipoic acid (GaSAL), and in GaSAL medium further supplemented with haemin+lipoic acid (GaSALH). The biomass yield was estimated by measuring the optical density at 600 nm (OD600). The yield of biomass increased by 30% relative to the yield obtained with GaSAL when the medium was supplemented with haemin (GaSALH). A chemostat experiment was also performed with cells grown on galactose. Here the biomass increased by 75% compared to the biomass obtained in GaSAL medium.

[2] = tested on: Lactococcus lactis subsp lactis FHCY-1; test: Growth in M17 batch cultures supplemented with different sugars; type: cell-based; details: FHCY-1, M17 medium
Protocol: Therefore, the growth of the starter culture strain, FHCY-1, was tested on various sugars.

[3] = tested on: phospho-β-D-galactosidase in FHCY-1 cells; test: Phospho-beta-galactosidase activity (ONPG-P substrate) as lac operon expression; type: cell-based, Lactococcus lactis subsp. lactis; details: for Specific activity of phospho-β-D-galactosidase: FHCY-1 cells grown in M17 on the carbon/energy source, average of two determinations
Protocol: The expression of the lac operon in the cells grown on the various sugars was also tested by measuring the activity of the enzyme phospho-beta-galactosidase. Samples were taken from the cultures in FIG. 2 and processed as described previously (Jensen and Hammer, 1998). Subsequently, the activity of phospho-beta-galactosidase was determined as the standard determination of beta-galactosidase, except that o-nitrophenyl-beta-D-galactopyranoside 6-phosphate (ONPG-P) was used as the chromogenic substrate instead of o-nitrophenyl-beta-D-galactopyranoside (ONPG).

[4] = tested on: commercial mixed strain starter culture of Lactococcus lactis; test: Biomass production in pH controlled aerobic batch in complex media with haemin; type: cell-based; details: for Yield (OD600nm): haemin, aerobic pH controlled batch
Protocol: A commercial mixed strain starter culture of Lactococcus lactis was applied in this Example. The cultivations were performed on complex media containing hydrolysed skimmed milk powder, yeast extract, essential vitamins and minerals and either lactose or maltose as carbon source. Furthermore, the media were supplemented with haemin. Medium 1 and Medium 2 were optimised with respect to the cellular yield on respectively lactose and maltose as carbon source. All media were adjusted to an initial pH of 6.5.
The cultivations were inoculated with concentrated cell suspensions of the L. lactis culture. Air was sparged through the cultivation broths at a rate sufficient to maintain the dissolved oxygen concentration above 50% of saturation level. The cultivations were conducted at a temperature of 30° C. The cultures were allowed to acidify to pH 6.2, and subsequently maintained at pH 6.2 by controlled addition of 13.4 N NH4OH. Samples were collected throughout the cultivations for measurements of the optical density using a Hitachi U-1100 Spectrophotometer at […].

atp mutant strain PJ4699 = test: Biomass yield (OD600) of atp mutant strain with lower H+-ATPase expression; type: cell-based, Lactococcus lactis; details: PJ4699, no nisin
From the text: In order to investigate whether or not the surplus of ATP that was found in the cultures cultivated in maltose medium (with haemin and lipoic acid) is due to oxidative phosphorylation it was decided to compare the biomass yield of a wild type strain and a strain which, relative to the wild type strain, has a lower expression of the H^+-ATPase complex. For that purpose a mutant strain of the MG1363 strain, PJ4699, was used. In this mutant strain the native promoter of the chromosomal atp operon has been replaced with the nisA promoter (de Ruyter et al., 1996).
This mutant therefore permitted an experiment to be performed where the biomass yield of the wild type strain and the H^+-ATPase mutant which had lower expression of the H^+-ATPase was compared. If ATP is synthesised by the H^+-ATPase complex, then the biomass yield on maltose should be lower in the mutant cells having lower activity of this enzyme, under conditions where oxidative phosphorylation is observed.

[5] = tested on: Lactococcus lactis subsp. cremoris; test: Intracellular [ATP]/[ADP] ratio in exponentially growing aerobic cultures; type: cell-based; details: MSA+L+H versus MSA+L
Protocol: The intracellular concentrations of ATP and ADP was measured to test whether the addition of a porphyrin to a culture growing on a poor carbon/energy source would increase the [ATP]/[ADP] ratio as might be expected if the ATP synthase starts to produce ATP. Samples were taken from exponentially growing cultures of Lactococcus lactis subsp. cremoris at cell densities between 0.2 and 0.8 (OD600). The total intracellular metabolite content were extracted as described previously (Andersen et al., 2001) and the concentrations of ATP and ADP were determined as described in Jensen et al. (1 993).

[6] = Medium 1 (optimised for growth on lactose)

Compound: O=C(O)CCCC[C@@H]1CCSS1 (racemic) [lipoic acid]
- Increase of yield of biomass relative to MSA [1]: 48%
- Increase of yield of biomass relative to GSA [1]: about 7%

Compound: O=C[C@H](O)[C@@H](O)[C@@H](O)[C@H](O)CO [Galactose, galactose]
- Reduction of growth compared to lactose [2]: approximately 20%
- Increase of phospho-β-D-galactosidase activity compared to lactose ([3]; FHCY-1 cells): 20%
- Specific activity of phospho-β-D-galactosidase [3]: 172.2

Compound: OC[C@H]1O[C@@H](O[C@H]2[C@H](O)[C@@H](O)C(O)O[C@@H]2CO)[C@H](O)[C@@H](O)[C@H]1O (stereo partly drawn) [Lactose, lactose]
- Yield (OD600nm) [4, 6]: 48 OD600nm
- Specific activity of phospho-β-D-galactosidase [3]: 149.5

Compound: OC[C@H]1O[C@H](O[C@H]2[C@H](O)[C@@H](O)[C@H](O)O[C@@H]2CO)[C@H](O)[C@@H](O)[C@@H]1O [maltose]
- Biomass ([1]; moderate aeration): 100%
- Biomass ([1]; vigorous aeration): 100%
- Yield (OD600nm) [4, 6]: 60 OD600nm
- Yield (OD600nm) ([4]; Medium 2 (optimised for growth on maltose)): 96 OD600nm
- Increase of final yield of biomass compared to the lactose culture ([4]; medium 1, haemin, aerobic): 25%
- Yield of biomass compared to optimised lactose medium ([4]; medium 2, haemin, aerobic): two-fold higher
- Specific activity of phospho-β-D-galactosidase [3]: 37.5

Compound: haemin
- Increase of yield of biomass relative to MSA [1]: 33%
- Increase of yield of biomass relative to GSA [1]: about 12%
- Growth of the nisin-dependent atp mutant without nisin (atp mutant strain PJ4699): capable of growth without nisin
- Growth rate increase of haemin culture versus culture without haemin [5]: 30%
